Converted amounts (≈) assume the structure as drawn. “Also recorded” adds a separate entry of the source. Where two headings read alike, the source gives them in different places.
Experiments:
[1] = test system: Escherichia coli ATCC35218; experiment: microbe, parasite or virus in culture; format: cell-based; details: ATCC35218, read-out: MIC Ec
Experimental: (§1) The minimum inhibitory concentration (MIC) of the synthesized compounds was initially determined against three microbial indicator strains (Escherichia coli ATCC35218, […] ATCC33592, Septoria tritici MUCL45408). […]
(§2) 2. Microbial and parasitological studies
(§3) The minimum inhibitory concentration (MIC) of the synthesized compounds was determined against three microbial indicator strains (E. coli ATCC35218, S. aureus ATCC33592 and S. tritici MUCL45408) as previously described.1,2 All samples were dissolved in DMSO and tested in triplicate. Briefly, a pre-culture of E. coli and S. aureus was prepared by incubating the strains in cation adjusted Mueller Hinton 2 broth (Becton Dickinson, Sparks, NV, USA) at 37°C and 180 rpm overnight. The cell density of adjusted to 5 × 10^5 cells/mL before assays were incubated at 37 °C, 180 rpm and 85% rH. Three distinct dilution series of standard antibiotics (gentamicin, rifampicin, […]
(§4) medium without test compound or positive control was used as negative control.
(§5) Medium background was averaged from 5 replicates. The turbidity of each well was […]

[2] = test system: S. aureus ATCC33592; experiment: microbe, parasite or virus in culture; format: cell-based; details: Staphylococcus aureus, ATCC33592, read-out: MIC Sa
Experimental: as §1, §2, §3, §4, §5

[3] = test system: Septoria tritici MUCL45408; experiment: Minimum inhibitory concentration (MIC), S. tritici (ATP quantification); format: cell-based; details: Zymoseptoria tritici, read-out: MIC St
Experimental: as §1, §2
The minimum inhibitory concentration (MIC) of the synthesized compounds was determined against three microbial indicator strains (E. coli ATCC35218, S. aureus ATCC33592 and S. tritici MUCL45408) as previously described.1,2 All samples were dissolved in DMSO and tested in triplicate. Briefly, a pre-culture of E. coli and S. aureus was prepared by incubating the strains in cation adjusted Mueller Hinton 2 broth (Becton Dickinson, Sparks, NV, USA) at 37°C and 180 rpm overnight. The cell density of adjusted to 5 × 10^5 cells/mL before assays were incubated at 37 °C, 180 rpm and 85% rH. Three distinct dilution series of standard antibiotics (gentamicin, rifampicin, and tetracycline) were used as positive controls on each assay plate. Inoculated medium without test compound or positive control was used as negative control.
Medium background was averaged from 5 replicates. The turbidity of each well was measured with a microplate spectrophotometer at 600 nm (LUMIstar® Omega, BMG Labtech) and growth inhibition was calculated relative to the absorption of the controls. For S. tritici MUCL45408 inoculated at a density of 1 × 10^5 cells/mL in potato […]
dextrose medium. Septoria assay plates were incubated for 4 days at 25 °C, 180 rpm and 85% rH. Tebuconazole, amphotericin B, and nystatin were used as positive controls. Cell viability was evaluated via ATP quantification (BacTiter-Glo™, Promega GmbH, Walldorf, Germany) according to the manufacturer’s instructions. […]

[4] = test system: Schistosoma mansoni; experiment: In vitro tests against Schistosoma mansoni (vitality parameters of adult worm pairs); format: cell-based; details: for lethal effects: after seven days; for sucker detachment: after three days; for Effect on S. mansoni: 10 and 20 μM, up to 7 days, Det: detachment of suckers, Mot: motility reduction, Sep: pair separation; for activity against S. mansoni (100% effect strength in one parameter within 7 days = active): 10 or 20 μM
Experimental: Subsequently, we tested whether compounds with nematocidal activity display a broader activity also against parasitic flatworms. To this end, in vitro tests against the blood fluke S. mansoni were conducted (Fig. 4). The worms were incubated in presence of 10 and 20 μM of compounds 1–22 and phenotypic vitality parameters (separation of worm pairs, detachment of suckers from the bottom of the well and weakening of body movements) were assessed as previously described.[31] Compounds reaching 100% effect strength in one of the parameters within 7 days were considered active. Reduction of motility is considered most relevant for antischistosomal drug candidates.[32] In addition, loss of sucker activity would make parasites drifting off from their host habitat (mesenteric veins) and with pair separation, the production of pathology-causing eggs eventually ceases.[33] […] For some molecular targets e.g. glutamate and GABA chloride channels (ivermecin, abamectin) and β-tubulin (albendazole, mebendazole) the C. elegans assays results were transferable to Schistosoma, while for others e.g. acetylcholin mimetic (levamisole) the C. elegans MMIC was not predicative (Fig. S1 ^†).
2.2 Parasitological studies
Animal experiments were performed in accordance with Directive 2010/63/EU on the protection of animals used for scientific purposes and the German Animal Welfare Act. The experiments were approved by the Regional Council (Regierungspraesidium) Giessen (V54 – […]
A Liberian strain of S. mansoni was maintained in the freshwater snail Biomphalaria glabrata as intermediate host and Syrian hamsters (Mesocricetus auratus) as final host (Janvier Labs, France).5,6 Hamsters were infected at 8 weeks of age with 1,750 cercariae by using the paddling method.7 Adult worms were collected at 46 days p.i. by hepatoportal perfusion and cultured in M199 medium (Sigma-Aldrich, Germany) supplemented with 10% Newborn Calf Serum (NCS, Sigma-Aldrich), 1% 1 M HEPES (ThermoFisher Scientific, USA) and 1% ABAM solution (10,000 units/ml penicillin, 10 mg/ml streptomycin and […] amphotericin B; Sigma-Aldrich, Germany) at 37 °C, 5% CO2 and humidified atmosphere.
2.2.3. In vitro tests against Schistosoma mansoni
Test compounds were added at 10 µM or 20 µM in supplemented M199 medium to schistosomes (5 worm pairs per replicate) followed by a 7 d in vitro culture. Worms receiving the solvent DMSO at equal dilution served as negative control. The following vitality parameters were assessed every 24 h by bright field microscopy using a Leica DM IL inverted microscope and x2.5 objective lens: separation of worm pairs into male and female worms; detachment of suckers from the bottom; and weakening of body movements. Worm motility was scored as described previously, 8 with the scores 3 (normal motility), 2 (reduced motility), 1 (minimal and sporadic movements), 0 (no movements within 20 sec; dead worms). An average score of all worms per well was calculated to obtain a motility score. An average motility score of 0, separation of all pairs or detachment of all worms per well was considered

[5] = test system: C. elegans strains N2 and DC19; experiment: MMIC against C. elegans, strains N2 and DC19 reported together or strain not stated; format: cell-based; details: Caenorhabditis elegans, 48 h
Description: (§6) The cuticle of C. elegans strain DC19 is known to be more permeable for small molecules compared to the wildtype N2.[30] DC19 is thereby considered an informative drug-sensitive test organism. In our assays, we determined the minimum mobility inhibitory concentration (MMIC) as a proxy for anthelmintic activity. […] In contrast, MMICs of some small molecule anthelmintics such as albendazole, mebendazole or PF-1022A were lower for DC19 (Fig. S1 ^†). […]
(§7) 2.2 In vitro tests against Caenorhabditis Elegans
(§8) The minimal motility inhibitory concentration (MMIC) of compounds 1-22 against C. elegans was determined as described before.3 Both strains, C. elegans N2 and DC19 were treated identically. Briefly, pre-cultures of C.elegans were kept on NGM agar plates infused with auxotrophic E.coli OP50 as food source.4 After 4 days the plates contained sufficient gravid worms, respectively. Worms were washed from the plates with M9 buffer using wide bore pipette tips. Egg preparation was carried out by treating the harvested worms with an alkaline hypochlorite solution (5 M NaOH + 5 % NaOCl 1:2) in polypropylene tubes. Larvae and adult […]
(§9) We carried out 3 washing steps (M9 buffer) to remove carry-over hypochlorite solution. Subsequently, the eggs were incubated overnight in NGM broth on a rotator to yield synchronized hatched L1/L2 larvae. The larvae solution was adjusted to 100 worms/mL and supplemented with cholesterol (5 µg/mL), carbenicillin (25 µg/mL) and E.coli OP50 (0.5%). This assay solution was distributed into 96 well plates and incubated with a dilution series of compounds 1-22 (64-0.5 µg/mL). An additional eight-point dilution series of ivermecin (40 – 0.3 ng/mL) was used as positive control on each assay plate. Solvent background was controlled by supplementation of pure DMSO without any compound. Assays were incubated for 2 days at room temperature. Finally, a cell imaging multimode reader (Cytation™ 5) was used to record short videos (1.5 seconds) of each individual test well. The videos were used to evaluate the worm motility.

[6] = in vitro; details: dog
[7] = test system: MDCK II cells; experiment: In vitro cytotoxicity, CellTiter-Glo, MDCK II cells; details: 100 μM; for MDCKII cytotoxicity: 48 h, cell viability less than 80% relative to DMSO control = cytotoxic
[8] = test system: C. elegans N2; experiment: whole plant or invertebrate; format: cell-based, Caenorhabditis elegans; details: Caenorhabditis elegans, 48 h, read-out: MMIC N2
Description: as §6, §7, §8, §9

[9] = test system: C. elegans DC19; experiment: whole plant or invertebrate; format: cell-based, Caenorhabditis elegans; details: Caenorhabditis elegans, 48 h, read-out: MMIC DC19
Description: as §6, §7, §8, §9

[10] = C. elegans, read-out: MMIC N2 and DC19
[11] = 96 h, S. tritici MUCL45408, 4 days

| Compound | MIC [1] [µg/mL] | MIC [2] [µg/mL] | MIC ([3]; MUCL45408, 96 h) [µg/mL] | lethal effects ([4]; 20 μM) | sucker detachment ([4]; 20 μM) | Effect on S. mansoni [4] | activity against S. mansoni (100% effect strength in one parameter within 7 days = active) [4] | minimal effective concentration [5, 10] [µg/mL] | CC50 [6] [µM] | cytotoxicity against MDCK II (in words) [7] | MDCKII cytotoxicity [7] | minimal effective concentration [8] [µg/mL] | MIC [3, 11] [µg/mL] | minimal effective concentration ([9]; C. elegans DC19, 2 days) [µg/mL] | minimal effective concentration ([8]; C. elegans N2, 2 days) [µg/mL] | minimal effective concentration [9] [µg/mL] | detachment of suckers and pair separation ([4]; 20 μM, after 7 days incubation) | sucker detachment of Schistosoma worm pairs ([4]; 10 μM) | motility score ([4]; score 3 normal motility to 0 dead, paragraph on 20 μM) | minimal effective concentration ([5]; read-out: MMIC N2 and DC19, C. elegans) [µg/mL] |
| --- | --- | --- | --- | --- | --- | --- | --- | --- | --- | --- | --- | --- | --- | --- | --- | --- | --- | --- | --- | --- |
| COc1cc(CN2CC(Cl)CC(C)(C)C2)cc(CN2CC(Cl)CC(C)(C)C2)c1 (stereo not shown) [Compound 2] | > 64 | > 64 | 64 (≈ 150 µM) | lethal effect | sucker detachment already after three days | Det, Sep, Mot, Lethal | showed an effect on S. mansoni; also recorded: active at 20 μM | < 20 | 83 | did not exhibit cytotoxic properties | − (“−” (not toxic)) | – | – | – | – | – | – | – | – | – |
| CN(C)c1cc(CN2CC(Cl)CC(C)(C)C2)cc(CN2CC(Cl)CC(C)(C)C2)c1 (stereo not shown) [Compound 3] | > 64 | > 64 | > 64 | lethal effects | sucker detachment already after three days | – | showed an effect on S. mansoni | < 20 | – | cytotoxic | + (“+” (toxic)) | 16 | – | – | – | – | – | – | – | – |
| Cc1cc(CN2CC(Cl)CC(C)(C)C2)cc(CN2CC(Cl)CC(C)(C)C2)c1 (stereo not shown) [Compound 7] | > 64 | > 64 | – | – | – | – | showed an effect on S. mansoni | < 20 | – | – | – | – | > 64 | 16 | – | – | – | – | – | – |
| CC1(C)CC(Cl)CN([C@H]2CC[C@H](N3CC(Cl)CC(C)(C)C3)CC2)C1 (stereo partly shown) [Compound 10] | > 64 | > 64 | – | – | – | – | – | ≥ 64 | – | – | – | – | > 64 | > 64 | > 64 | – | – | – | – | – |
| COC(=O)[C@H](CCCCN1CC(Cl)CC(C)(C)C1)N1CC(Cl)CC(C)(C)C1 (stereo partly shown) [Compound 11] | > 64 | > 64 | > 64 | – | – | Det, Sep | Schistosoma-specific; also recorded: active at 20 μM | – | 123 | – | − (“−” (not toxic)) | > 64 | – | – | – | > 64 | detachment of suckers and pair separation | – | – | – |
| CC1(C)CC(Cl)CN(CCCC[C@@H](C(=O)OCCc2ccccc2)N2CC(Cl)CC(C)(C)C2)C1 (stereo partly shown) [Compound 12] | > 64 | > 64 | – | – | – | – | showed an effect on S. mansoni | < 20 | – | – | – | – | > 64 | 16 | – | – | – | full sucker detachment | 1–1.2 | – |
| CC1(C)CC(Cl)CN(CCN2CC(Cl)CC(C)(C)C2)C1 (stereo not shown) [Compound 15] | > 64 | > 64 | > 64 | – | – | – | – | – | – | – | + (“+” (toxic)) | > 64 | – | – | – | > 64 | – | – | – | ≥ 64 |

Source: paper PMC11718441, “Bis-3-chloropiperidines: a novel motif for anthelmintic drug design” (RSC Advances, 2025)
